Drawing on US8586505B2 (SDS Biotech K. K., priority 2009, dated 2013), this text covers pest or weed control for 41 molecules.

Common to all, as to assay type: in vivo
One test deals with Phytophthora infestans. As to the kind of experiment: whole plant or invertebrate. The following applies: in Solanum lycopersicum, 96 h, read-out: Determination of control effect (preventive value).
For test [1], the system named is Pseudoperonospora cubensis. Kind of test: Test of examining control effect on Pseudoperonospora cubensis (potted cucumber plants). The conditions noted are these: 96 h, 10% wettable powder adjusted to 125 ppm, 15 ml/pot sprayed on potted cucumber plants one day before spray inoculation, assessed after 1 day wet chamber and 3 days greenhouse, read-out: Determination of control effect (preventive value) on Pseudoperonospora cubensis. Summed up: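 Cucumber plants (Sagamihanjiro, 2.5-leaf stage) sprayed with 125 ppm compound solution from 10% wettable powder, 15 ml/pot. One day later, spray-inoculated with P. cubensis conidia (1.0×10^4 cells/ml), kept 1 day at 21° C wet, then 3 days in greenhouse. Preventive value derived from lesion area relative to untreated plants.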

The test system of another test is Sphaerotheca fuliginea. Kind of test: Test of examining control effect on Sphaerotheca fuliginea (potted cucumber plants). The following applies: Podosphaera fuliginea, 336 h; 10% wettable powder adjusted to 125 ppm, 15 ml/pot sprayed on potted cucumber plants one day before spray inoculation; assessed after 14 days in greenhouse; read-out: Determination of control effect (preventive value) on Sphaerotheca fuliginea. Summed up:
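Cucumber plants (Sagamihanjiro, 2nd leaf stage) sprayed with 125 ppm compound (from 10% wettable powder), inoculated one day later with S. fuliginea conidia (1.0×10^5 cells/ml); lesion area scored after 14 days in greenhouse. Preventive value vs untreated; ≥60% high, <60% low control.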

Molecules are shown by their SMILES.

On to `COc1ccccc1C#CCCNc1ncnc2sccc12` [compound 21], for which the pest or weed control at 125 ppm in the test with Phytophthora infestans lay within 60 to 100%. Further, the pest or weed control at 125 µg/mL lay within 60 to 100% in test [1] and 0 to 60% in the test on Sphaerotheca fuliginea.

As to `CC(C)OCc1ccccc1C#CCCNc1ncnc2ccccc12` [compound 154], the pest or weed control at 125 ppm in the test on Phytophthora infestans is 60 to 100%. For the same molecule, the pest or weed control at 125 µg/mL (in test [1]; with Sphaerotheca fuliginea) was 60 to 100% in each case.

Turning to `CC(CC#Cc1ncccc1C(F)(F)F)Nc1ncnc2sccc12` (stereo not drawn) [compound 264], in the test with Phytophthora infestans, the pest or weed control at 125 ppm was 60 to 100%. Moreover, the pest or weed control at 125 µg/mL (in test [1]; with Sphaerotheca fuliginea) was 60 to 100% each time.

For `CC(CC#Cc1ccc(Cl)cc1C(F)(F)F)Nc1ncnc2cc(F)ccc12` (stereo not drawn) [compound 344], the pest or weed control at 125 ppm in the test with Phytophthora infestans is 0 to 60%. The pest or weed control at 125 µg/mL (in test [1]; in the test with Sphaerotheca fuliginea) was 60 to 100% throughout.

For the molecule `O=Cc1nc(C#CCCNc2ncnc3sccc23)cs1` [compound 69], the pest or weed control at 125 ppm in the test on Phytophthora infestans was in the range of 60 to 100%. Moreover, the pest or weed control at 125 µg/mL in test [1] fell in the range of 60 to 100%; with Sphaerotheca fuliginea, 0 to 60%.

With `COCc1ccccc1C#CCCNc1ncnc2ccc(Br)cc12` [compound 321], in the test with Phytophthora infestans, the pest or weed control at 125 ppm was 0 to 60%. The pest or weed control at 125 µg/mL (in test [1]; with Sphaerotheca fuliginea) was 60 to 100% throughout.

Consider `Cc1ccccc1C#CCCNc1ncnc2sccc12` [compound 17], for which the pest or weed control at 125 ppm in the test with Phytophthora infestans fell in the range of 60 to 100%. For the same molecule, the pest or weed control at 125 µg/mL (in test [1]; in the test on Sphaerotheca fuliginea) was 60 to 100% in each case.

As to `COCc1ccccc1C#CCCNc1ncnc2c(F)cccc12` [compound 315], the pest or weed control at 125 ppm with Phytophthora infestans lay in the range of 60 to 100%. Besides, the pest or weed control at 125 µg/mL (in test [1]; in the test on Sphaerotheca fuliginea) was 60 to 100% each time.

`COc1ccccc1Oc1nc(C#CCCNc2ncnc3ccccc23)cs1` [compound 215]: the pest or weed control at 125 ppm in the test on Phytophthora infestans lay in the range of 60 to 100%. The pest or weed control at 125 µg/mL (in test [1]; in the test with Sphaerotheca fuliginea) was 60 to 100% throughout.

On to `Fc1cccc2c(NCCC#Cc3ccccc3C(F)(F)F)ncnc12` [compound 306], for which, in the test with Phytophthora infestans, the pest or weed control at 125 ppm was in the range of 60 to 100%. The pest or weed control at 125 µg/mL (in test [1]; with Sphaerotheca fuliginea) was 60 to 100% each time.

As for `C(#CC1CCCCC1)CCNc1ncnc2ccccc12` [compound 91], the pest or weed control at 125 ppm in the test with Phytophthora infestans lay in the range of 60 to 100%. Moreover, the pest or weed control at 125 µg/mL (in test [1]; with Sphaerotheca fuliginea) was 60 to 100% throughout.

Consider `COCc1ccccc1C#CCCNc1ncnc2c(C)cc(Cl)cc12` [compound 327], for which the pest or weed control at 125 ppm in the test on Phytophthora infestans was in the range of 0 to 60%. Also, the pest or weed control at 125 µg/mL in test [1] is 60 to 100%; with Sphaerotheca fuliginea, 0 to 60%.

For `COCc1ccccc1C#CCCNc1ncnc2c(C)cccc12` [compound 325], the pest or weed control at 125 ppm with Phytophthora infestans lay in the range of 60 to 100%. Moreover, the pest or weed control at 125 µg/mL (in test [1]; with Sphaerotheca fuliginea) was 60 to 100% in each case.

As to `Cc1ccc(C#CCCNc2ncnc3ccccc23)c(C)c1` [compound 180], the pest or weed control at 125 ppm in the test with Phytophthora infestans is 60 to 100%. The pest or weed control at 125 µg/mL (in test [1]; in the test on Sphaerotheca fuliginea) was 60 to 100% in each case.

`C(#Cc1ccsc1)CCNc1ncnc2ccccc12` [compound 205]: the pest or weed control at 125 ppm in the test on Phytophthora infestans is 60 to 100%. Moreover, the pest or weed control at 125 µg/mL (in test [1]; with Sphaerotheca fuliginea) was 60 to 100% throughout.

On to `N#Cc1ccccc1Oc1nc(C#CCCNc2ncnc3ccccc23)cs1` [compound 221], for which the pest or weed control at 125 ppm in the test with Phytophthora infestans was in the range of 0 to 60%. For the same molecule, the pest or weed control at 125 µg/mL (in test [1]; with Sphaerotheca fuliginea) was 60 to 100% in each case.

In the case of `COCc1ccccc1C#CCCNc1ncnc2ccccc12` [compound 133], the pest or weed control at 125 ppm with Phytophthora infestans was 60 to 100%. The pest or weed control at 125 µg/mL (in test [1]; with Sphaerotheca fuliginea) was 60 to 100% in each case.

For the molecule `COCc1ccccc1C#CCCNc1ncnc2ccc(OCC#Cc3ccccc3)cc12` [compound 339], the pest or weed control at 125 ppm in the test on Phytophthora infestans was in the range of 0 to 60%. The results for the pest or weed control at 125 µg/mL (in test [1]; in the test on Sphaerotheca fuliginea) were 60 to 100% and 0 to 60%, respectively.

In the case of `COc1ccc2cc(C#CCCNc3ncnc4ccccc34)ccc2c1` [compound 184], the pest or weed control at 125 ppm in the test with Phytophthora infestans fell in the range of 60 to 100%. Besides, the pest or weed control at 125 µg/mL (in test [1]; with Sphaerotheca fuliginea) was 60 to 100% throughout.

For `CC(CC#Cc1ccc(Cl)cc1C(F)(F)F)Nc1ncnc2c(C(F)(F)F)cccc12` (stereo not drawn) [compound 351], the pest or weed control at 125 ppm with Phytophthora infestans was 0 to 60%. Further, the pest or weed control at 125 µg/mL (in test [1]; with Sphaerotheca fuliginea) was 60 to 100% throughout.

Turning to `CC(C)C(CC#Cc1ccccc1)Nc1ncnc2ccccc12` (stereo not drawn) [compound 298], the pest or weed control at 125 ppm in the test on Phytophthora infestans fell in the range of 60 to 100%. The pest or weed control at 125 µg/mL (in test [1]; in the test on Sphaerotheca fuliginea) was 60 to 100% each time.

With `Ic1ccc(C#CCCNc2ncnc3ccccc23)cc1` [compound 98], in the test on Phytophthora infestans, the pest or weed control at 125 ppm fell in the range of 0 to 60%. The pest or weed control at 125 µg/mL (in test [1]; with Sphaerotheca fuliginea) was 60 to 100% throughout.

For `CC(CC#Cc1ccccc1)Nc1ncnc(C(C)F)c1I` (stereo not drawn) [compound 381], the pest or weed control at 125 ppm with Phytophthora infestans is 60 to 100%. For the same molecule, the pest or weed control at 125 µg/mL (in test [1]; in the test with Sphaerotheca fuliginea) was 60 to 100% in each case.

In the case of `CSc1ccc(C#CCCNc2ncnc3ccccc23)cc1` [compound 117], in the test with Phytophthora infestans, the pest or weed control at 125 ppm was 60 to 100%. Also, the pest or weed control at 125 µg/mL (in test [1]; in the test with Sphaerotheca fuliginea) was 60 to 100% each time.

As for `COCc1ccccc1C#CCC(C)Nc1ncnc2ccccc12` (stereo not drawn) [compound 278], the pest or weed control at 125 ppm in the test with Phytophthora infestans was 60 to 100%. Moreover, the pest or weed control at 125 µg/mL (in test [1]; with Sphaerotheca fuliginea) was 60 to 100% throughout.

For the molecule `CC(CC#Cc1ccc(C(F)(F)F)cc1)Nc1ncnc2ccccc12` (stereo not drawn) [compound 275], in the test with Phytophthora infestans, the pest or weed control at 125 ppm lay in the range of 60 to 100%. The pest or weed control at 125 µg/mL (in test [1]; with Sphaerotheca fuliginea) was 60 to 100% each time.

As to `Cc1ncnc(NC(C)CC#Cc2ccccc2)c1Cl` (stereo not drawn) [compound 389], the pest or weed control at 125 ppm with Phytophthora infestans was in the range of 0 to 60%. The pest or weed control at 125 µg/mL (in test [1]; with Sphaerotheca fuliginea) was 60 to 100% throughout.

As to `Nc1c(Cl)ncnc1NCCC#Cc1ccccc1C(F)(F)F` [compound 368], the pest or weed control at 125 ppm in the test on Phytophthora infestans lay in the range of 0 to 60%. Moreover, the pest or weed control at 125 µg/mL (in test [1]; with Sphaerotheca fuliginea) was 60 to 100% each time.

Turning to `COCc1ccccc1C#CCCNc1ncnc2ccc(Cl)cc12` [compound 313], the pest or weed control at 125 ppm in the test with Phytophthora infestans fell in the range of 0 to 60%. Moreover, the pest or weed control at 125 µg/mL (in test [1]; in the test on Sphaerotheca fuliginea) was 60 to 100% throughout.

With `C(#CC1=CCCCC1)CCNc1ncnc2ccccc12` [compound 94], the pest or weed control at 125 ppm in the test on Phytophthora infestans is 0 to 60%. The pest or weed control at 125 µg/mL (in test [1]; in the test on Sphaerotheca fuliginea) was 60 to 100% in each case.

Consider `CS(=O)(=O)c1ncnc(NCCC#Cc2ccccc2C(F)(F)F)c1[N+](=O)[O-]` [compound 369], for which, in the test on Phytophthora infestans, the pest or weed control at 125 ppm is 0 to 60%. The pest or weed control at 125 µg/mL (in test [1]; in the test on Sphaerotheca fuliginea) was 0 to 60% in each case.

Regarding `C[Si](C)(C)c1ccc(C#CCCNc2ncnc3ccccc23)cc1` [compound 111], the pest or weed control at 125 ppm in the test with Phytophthora infestans was in the range of 0 to 60%. The pest or weed control at 125 µg/mL (in test [1]; with Sphaerotheca fuliginea) was 60 to 100% throughout.

In the case of `COc1ccc(C#CCC(C)Nc2ncnc3ccccc23)c(C(F)(F)F)c1` (stereo not drawn) [compound 287], the pest or weed control at 125 ppm in the test on Phytophthora infestans lay within 0 to 60%. The pest or weed control at 125 µg/mL (in test [1]; in the test on Sphaerotheca fuliginea) was 60 to 100% each time.

Regarding `CC(CC#Cc1ccc(F)cc1C(F)(F)F)Nc1ncnc2cc(F)ccc12` (stereo not drawn) [compound 347], in the test on Phytophthora infestans, the pest or weed control at 125 ppm lay within 0 to 60%. The pest or weed control at 125 µg/mL (in test [1]; in the test on Sphaerotheca fuliginea) was 60 to 100% throughout.

Turning to `COCOCc1ccccc1C#CCCNc1ncnc2ccccc12` [compound 148], the pest or weed control at 125 ppm in the test on Phytophthora infestans lay within 60 to 100%. Further, the pest or weed control at 125 µg/mL (in test [1]; in the test with Sphaerotheca fuliginea) was 60 to 100% in each case.

As to `CCOCc1ccccc1C#CCCNc1ncnc2ccccc12` [compound 153], the pest or weed control at 125 ppm in the test with Phytophthora infestans lay within 60 to 100%. In addition, the pest or weed control at 125 µg/mL in test [1] is 60 to 100%; with Sphaerotheca fuliginea, 0 to 60%.

Consider `COc1ccccc1C#CCCNc1ncnc2ccccc12` [compound 115], for which, in the test with Phytophthora infestans, the pest or weed control at 125 ppm was 60 to 100%. For the same molecule, the pest or weed control at 125 µg/mL (in test [1]; with Sphaerotheca fuliginea) was 60 to 100% each time.

As to `C(#Cc1ccc2ccccc2n1)CCNc1ncnc2ccccc12` [compound 188], the pest or weed control at 125 ppm with Phytophthora infestans lay within 0 to 60%. Also, the pest or weed control at 125 µg/mL was in the range of 60 to 100% in test [1] and 0 to 60% in the test on Sphaerotheca fuliginea.

Regarding `Fc1ccc(C(F)(F)F)c(C#CCCNc2ncnc3ccccc23)c1` [compound 168], the pest or weed control at 125 ppm in the test on Phytophthora infestans fell in the range of 60 to 100%. The pest or weed control at 125 µg/mL (in test [1]; in the test on Sphaerotheca fuliginea) was 60 to 100% throughout.

Turning to `C(#CC1CC1)CCNc1ncnc2ccccc12` [compound 90], in the test on Phytophthora infestans, the pest or weed control at 125 ppm fell in the range of 0 to 60%. In addition, the pest or weed control at 125 µg/mL (in test [1]; with Sphaerotheca fuliginea) was 60 to 100% each time.

In the case of `CN1C(=O)c2ccc(C#CCCNc3ncnc4sccc34)cc2C1=O` [compound 84], the pest or weed control at 125 ppm in the test with Phytophthora infestans lay within 60 to 100%. Further, the pest or weed control at 125 µg/mL lay in the range of 60 to 100% in test [1] and 0 to 60% with Sphaerotheca fuliginea.
